Source: ChEMBL document CHEMBL5614367, “Hydroxamic acid hybrids: Histone deacetylase inhibitors with anticancer therapeutic potency” (Eur J Med Chem, 2023)
Each block holds one molecule with its values, some of them ahead of it.

Legend:
MCF7 [1] = test: cells; details: Homo sapiens
A549 [2] = test: Antiproliferative activity against human A549 cells
[3] = biological target: Phosphatidylinositol 4,5-bisphosphate 3-kinase catalytic subunit alpha isoform (Homo sapiens, UniProt P42336); test: Inhibition of PI3Kalpha (unknown origin)
Phosphatidylinositol 4,5-bisphosphate 3-kinase catalytic subunit alpha isoform, sequence (P42336 whole entry, canonical isoform): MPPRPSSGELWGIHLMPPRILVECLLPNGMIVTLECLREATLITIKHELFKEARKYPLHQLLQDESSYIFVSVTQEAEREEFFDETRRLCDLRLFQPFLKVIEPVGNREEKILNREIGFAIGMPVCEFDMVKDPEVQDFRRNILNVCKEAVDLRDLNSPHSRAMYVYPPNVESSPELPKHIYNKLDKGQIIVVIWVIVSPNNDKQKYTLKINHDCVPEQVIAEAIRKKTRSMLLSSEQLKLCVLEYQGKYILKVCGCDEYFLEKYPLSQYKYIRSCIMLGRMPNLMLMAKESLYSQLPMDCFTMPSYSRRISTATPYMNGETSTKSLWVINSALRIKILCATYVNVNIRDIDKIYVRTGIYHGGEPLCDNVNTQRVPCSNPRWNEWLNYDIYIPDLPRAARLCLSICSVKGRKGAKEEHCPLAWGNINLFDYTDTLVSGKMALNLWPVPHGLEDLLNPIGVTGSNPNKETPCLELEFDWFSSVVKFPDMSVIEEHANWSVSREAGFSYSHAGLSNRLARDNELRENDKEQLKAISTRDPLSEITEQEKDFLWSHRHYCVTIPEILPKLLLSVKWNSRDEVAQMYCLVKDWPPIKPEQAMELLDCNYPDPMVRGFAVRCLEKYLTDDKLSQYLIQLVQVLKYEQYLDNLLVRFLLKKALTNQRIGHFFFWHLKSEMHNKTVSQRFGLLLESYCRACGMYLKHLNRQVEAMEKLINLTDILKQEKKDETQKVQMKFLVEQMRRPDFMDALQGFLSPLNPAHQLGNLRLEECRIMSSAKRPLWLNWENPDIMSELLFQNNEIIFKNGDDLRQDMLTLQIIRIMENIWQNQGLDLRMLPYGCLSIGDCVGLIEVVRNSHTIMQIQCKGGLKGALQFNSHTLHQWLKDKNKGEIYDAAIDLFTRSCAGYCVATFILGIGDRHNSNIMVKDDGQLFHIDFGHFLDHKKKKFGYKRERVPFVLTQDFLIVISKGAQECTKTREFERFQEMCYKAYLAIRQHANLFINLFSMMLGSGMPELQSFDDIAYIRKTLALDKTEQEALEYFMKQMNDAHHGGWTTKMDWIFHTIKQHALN

Histone deacetylase 1 = Histone deacetylase 1 (Homo sapiens, UniProt Q13547); test: Inhibition of HDAC1 (unknown origin)
Histone deacetylase 1, sequence (Q13547 whole entry): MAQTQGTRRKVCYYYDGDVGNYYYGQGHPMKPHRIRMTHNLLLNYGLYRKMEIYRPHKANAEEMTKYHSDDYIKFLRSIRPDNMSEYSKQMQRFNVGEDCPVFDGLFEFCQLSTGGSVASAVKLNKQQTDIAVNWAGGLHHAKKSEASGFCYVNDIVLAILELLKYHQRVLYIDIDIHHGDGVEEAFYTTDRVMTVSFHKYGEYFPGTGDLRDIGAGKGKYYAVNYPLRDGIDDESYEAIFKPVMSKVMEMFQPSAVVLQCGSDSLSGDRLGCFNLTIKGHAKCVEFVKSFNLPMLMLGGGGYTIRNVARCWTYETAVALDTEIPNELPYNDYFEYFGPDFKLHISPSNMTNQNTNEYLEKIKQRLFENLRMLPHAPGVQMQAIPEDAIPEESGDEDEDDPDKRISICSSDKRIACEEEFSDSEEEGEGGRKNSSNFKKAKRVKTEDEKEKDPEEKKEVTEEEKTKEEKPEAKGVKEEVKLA

A2780 = test: Antiproliferative activity against human A2780 cells; type: functional, cell-based
Jurkat = test: Antiproliferative activity against human Jurkat cells; type: functional, cell-based
HepG2 [4] = test: Antiproliferative activity against human HepG2 cells; type: functional, cell-based
[5] = biological target: Tyrosine-protein kinase JAK2 (Homo sapiens, UniProt O60674); test: Inhibition of JAK2 (unknown origin)
Tyrosine-protein kinase JAK2, sequence (O60674 whole entry): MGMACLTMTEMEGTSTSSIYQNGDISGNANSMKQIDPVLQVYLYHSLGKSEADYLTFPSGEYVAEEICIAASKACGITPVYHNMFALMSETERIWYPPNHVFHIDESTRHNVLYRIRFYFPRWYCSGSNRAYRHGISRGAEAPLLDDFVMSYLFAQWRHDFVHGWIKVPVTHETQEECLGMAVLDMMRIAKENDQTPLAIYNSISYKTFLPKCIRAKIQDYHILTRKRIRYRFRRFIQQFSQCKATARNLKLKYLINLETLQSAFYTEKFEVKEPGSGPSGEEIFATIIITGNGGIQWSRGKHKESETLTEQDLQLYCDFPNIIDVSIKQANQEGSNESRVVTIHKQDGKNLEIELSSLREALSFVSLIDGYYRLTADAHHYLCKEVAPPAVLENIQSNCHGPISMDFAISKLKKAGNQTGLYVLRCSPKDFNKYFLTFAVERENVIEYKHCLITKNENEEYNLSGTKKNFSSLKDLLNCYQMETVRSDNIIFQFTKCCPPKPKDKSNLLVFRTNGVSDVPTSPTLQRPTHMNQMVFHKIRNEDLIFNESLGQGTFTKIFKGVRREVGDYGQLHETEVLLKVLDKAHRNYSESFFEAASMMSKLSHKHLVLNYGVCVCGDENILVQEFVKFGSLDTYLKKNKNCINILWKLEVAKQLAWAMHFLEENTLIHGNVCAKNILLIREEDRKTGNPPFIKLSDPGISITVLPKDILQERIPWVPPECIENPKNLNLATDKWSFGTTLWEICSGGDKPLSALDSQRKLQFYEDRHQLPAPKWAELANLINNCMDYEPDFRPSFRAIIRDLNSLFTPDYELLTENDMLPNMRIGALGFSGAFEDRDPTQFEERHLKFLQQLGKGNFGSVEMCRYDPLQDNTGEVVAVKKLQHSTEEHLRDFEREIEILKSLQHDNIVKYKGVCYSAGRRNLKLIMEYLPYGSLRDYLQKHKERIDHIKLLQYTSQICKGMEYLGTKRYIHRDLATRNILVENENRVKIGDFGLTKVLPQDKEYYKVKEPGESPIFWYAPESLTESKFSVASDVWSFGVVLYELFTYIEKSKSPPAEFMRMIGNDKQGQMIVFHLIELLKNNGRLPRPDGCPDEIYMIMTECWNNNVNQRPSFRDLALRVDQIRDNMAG

MDA-MB-231 = test: Antiproliferative activity against human MDA-MB-231 cells
HeLa [6] = test: Antiproliferative activity against human HeLa cells; type: functional, cell-based
HCT-116 [7] = test: cells; details: Homo sapiens
MCF7 [8] = test: Antiproliferative activity against human MCF7 cells assessed as cell growth inhibition by SRB assay; type: functional
HeLa [9] = test: Antiproliferative activity against human HeLa cells assessed as cell growth inhibition by SRB assay; type: functional
HeLa [10] = test: Antiproliferative activity against human HeLa cells measured after 24 hrs by MTT assay; type: functional, cell-based
A549 [11] = test: Antiproliferative activity against human A549 cells assessed as cell growth inhibition by SRB assay; type: functional
HepG2 [12] = test: Antiproliferative activity against human HepG2 cells measured after 24 hrs by MTT assay; type: functional, cell-based; details: HepG2, 24 h
HCT-116 [13] = test: Antiproliferative activity against human HCT-116 cells measured after 24 hrs by MTT assay; type: functional, cell-based; details: HCT-116, 24 h
K562 = test: Antiproliferative activity against human K562 cells assessed as cell growth inhibition by SRB assay; type: functional
Histone deacetylase = test: Inhibition of HDAC (unknown origin); type: protein assay, Homo sapiens
HT-29 = test: Antiproliferative activity against human HT-29 cells; type: functional, cell-based
KYSE-450 = test: Antiproliferative activity against human KYSE-450 cells; type: functional, cell-based
MGC-803 = test: Antitumor activity against human MGC-803 cells xenografted in mouse assessed as tumor growth inhibition at 20 mg/kg relative to control; type: functional; details: read-out: TGI
NCI-H23 = test: Antiproliferative activity against human NCI-H23 cells incubated for 72 hrs by colorimetric method; type: functional, cell-based; details: NCI-H23, 72 h
SW-620 = test: Antiproliferative activity against human SW620 cells incubated for 72 hrs by colorimetric method; type: functional, cell-based; details: SW-620, 72 h
PC-3 = test: Antiproliferative activity against human PC-3 cells incubated for 72 hrs by colorimetric method; type: functional, cell-based; details: PC-3, 72 h

Structure (SMILES): CN1c2ccc(NCC3CCN(c4ncc(C(=O)NO)cn4)CC3)cc2C(=O)N2CCc3c([nH]c4ccc(O)cc34)C21 (centres undefined)
IC50 (MCF7 [1]): 230 nM
IC50 (A549 [2]): 230 nM

Structure (SMILES): COc1ncc(-c2ccc3nccc(C(=O)NCCCCC(=O)NO)c3c2)cc1NS(=O)(=O)c1cc(F)cc(F)c1
IC50 [3]: 1.3 nM
IC50 (Histone deacetylase 1): 4.8 nM
IC50 (A2780): 2150 nM

Structure (SMILES): COc1ccc2cc(C(=O)Oc3cccc(/C=C/C(=O)NO)c3)c(=O)oc2c1
IC50 (HeLa [6]): 6910 nM
IC50 (HCT-116 [7]): 6910 nM
IC50 (HepG2 [4]): 6910 nM
IC50 (MCF7 [1]): 6910 nM

Structure (SMILES): COc1cccc2c1C(=O)c1c(O)c3c(c(O)c1C2=O)C[C@@](O)(C(=O)CO)C[C@@H]3O[C@H]1C[C@H](N)[C@H](O)[C@H](C)O1 [DOXORUBICIN]
GI50 (MCF7 [8]): < 10000 nM
GI50 (HeLa [9]): < 10000 nM
IC50 (HeLa [10]): 4170 nM
GI50 (A549 [11]): < 10000 nM
IC50 (HepG2 [12]): 4170 nM
IC50 (HCT-116 [13]): 4170 nM
GI50 (K562): < 10000 nM

Structure (SMILES): CCN(CC)c1ccc2cc(C(=O)Oc3cccc(/C=C/C(=O)NO)c3)c(=O)oc2c1
IC50 (HeLa [6]): 7010 nM
IC50 (HCT-116 [7]): 7010 nM
IC50 (HepG2 [4]): 7010 nM
IC50 (MCF7 [1]): 7010 nM

Structure (SMILES): COc1ccc2c(c1)[nH]c1c(C)nccc12 [HARMINE]
IC50 (HCT-116 [7]): > 20000 nM
IC50 (HepG2 [4]): > 20000 nM
IC50 (A549 [2]): > 20000 nM
IC50 (HT-29): > 20000 nM

Structure (SMILES): CNC(=O)c1ccccc1Nc1nc(Nc2ccc(N3CCOCC3)cc2OC)ncc1Cl
IC50 (KYSE-450): 719 nM
IC50 (HCT-116 [7]): 719 nM
inhibition in vivo at 20 mg/kg (MGC-803): 22.3%

Structure (SMILES): CN1c2ccc(NCc3ccc(/C=C/C(=O)NO)cc3)cc2C(=O)N2CCc3c([nH]c4ccc(O)cc34)C21 (centres undefined)
IC50 (MCF7 [1]): 180 nM
IC50 (A549 [2]): 180 nM

Structure (SMILES): O=C(NO)c1csc(NS(=O)(=O)Nc2ccccc2)n1
IC50 (NCI-H23): 1450 nM
IC50 (SW-620): 1450 nM
IC50 (PC-3): 1450 nM

Results, then the molecule that gave them:

IC50 (Jurkat): 140 nM
IC50 (HepG2 [4]): 140 nM
IC50 (A549 [2]): 140 nM
IC50 [5]: 0.5 nM
IC50 (MDA-MB-231): 140 nM
IC50 (Histone deacetylase 1): 31.9 nM
Structure (SMILES): COc1cccc(Nc2nc(Nc3ccc(NC(=O)CCCCCCC(=O)NO)cc3)ncc2C)c1

IC50 (Jurkat): 370 nM
IC50 (HepG2 [4]): 370 nM
IC50 (A549 [2]): 370 nM
IC50 [5]: 0.6 nM
IC50 (MDA-MB-231): 370 nM
IC50 (Histone deacetylase 1): 2.2 nM
Structure (SMILES): Cc1cccc(Nc2nc(Nc3ccc(NC(=O)CCCCCCC(=O)NO)cc3)ncc2C)c1

IC50 (Histone deacetylase): 5.8 nM
Structure (SMILES): CC(C)(C)OC(=O)Nc1cccc(-c2cc(C(=O)NCCCCCCC(=O)NO)no2)c1

IC50 (Jurkat): 560 nM
IC50 (HepG2 [4]): 560 nM
IC50 (A549 [2]): 560 nM
IC50 (MDA-MB-231): 560 nM
Structure (SMILES): Cc1cnc(Nc2ccc(OCCN3CCCC3)cc2)nc1Nc1cccc(S(=O)(=O)NC(C)(C)C)c1 [FEDRATINIB]
